Data published in PubChem BioAssay (NCI).
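How tested: cells in 96-well plates exposed to compound for 48 hours at five concentrations. TGI denotes the concentration required for complete inhibition of growth.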

Assays:
Assay in all cases: NCI-60 cell line screen, 48 h
HCT-116 colon = test system: HCT-116 colon
HL-60(TB) leukemia = test system: HL-60(TB) leukemia
MDA-MB-231 breast = test system: MDA-MB-231 breast
NCI-H460 lung = test system: NCI-H460 lung
OVCAR-3 ovarian = test system: OVCAR-3 ovarian
OVCAR-4 ovarian = test system: OVCAR-4 ovarian
RPMI-8226 leukemia = test system: RPMI-8226 leukemia
SF-539 CNS = test system: SF-539 CNS
SN12C renal = test system: SN12C renal
SNB-19 CNS = test system: SNB-19 CNS
SW-620 colon = test system: SW-620 colon

SMILES | TGI (HCT-116 colon) [µM] | TGI (HL-60(TB) leukemia) [µM] | TGI (MDA-MB-231 breast) [µM] | TGI (NCI-H460 lung) [µM] | TGI (OVCAR-3 ovarian) [µM] | TGI (OVCAR-4 ovarian) [µM] | TGI (RPMI-8226 leukemia) [µM] | TGI (SF-539 CNS) [µM] | TGI (SN12C renal) [µM] | TGI (SNB-19 CNS) [µM] | TGI (SW-620 colon) [µM]
N#Cc1ccc(-n2c3ccccc3c3ccc4c(c32)C(=O)C=CC4=O)cc1 | 7.19 | > 100 | 8.25 | 44.2 | 11.1 | 13 | > 100 | 18.5 | 14.2 | 26.6 | 3.31
CC1=C(C(=O)Nc2ccccc2)C2(CCCCC2)C(C#N)=C(SCC(=O)Nc2ccc(Br)cc2)N1 | 8.28 | 13.7 | 27.1 | 11.4 | 15 | > 75.2 | 7.11 | 32.9 | 16.6 | > 32.7 | > 100
O=C1Oc2cc(O)cc(/C=C/c3ccc(O)cc3)c2[C@@]12c1c(O)cc(O)cc1OC2c1cccc(O)c1 (some centres not stated) | > 100 | 97.9 | 95.9 | 59.6 | > 100 | > 100 | 37.1 | > 100 | 78 | 91.6 | 
CC(C)NC(=O)CN1CCN(c2c(O)c3c(c(O)c2Cl)C(=O)C=CC3=O)CC1 | 2.61 | 0.642 | 4.26 | 22.1 | 2.97 | 3.12 | 7.27 | 3.66 | 3.28 | 26.9 | 1.92
N#Cc1c(N)nc(Sc2ccccc2N)c(C#N)c1-c1ccc(Cl)cc1 | > 72.6 | > 100 | 35.7 | 58.6 | 31.9 | > 100 | 28.8 | 26.7 | 40.4 | > 56.6 | > 100
CC(=O)c1cc2ccccc2oc1=O | > 100 | > 100 | > 100 | > 100 | > 100 | > 100 | > 100 | > 100 | > 100 | > 100 | > 100
Cn1c(-c2cccc([N+](=O)[O-])c2)[n+](C)c2ccccc21 | > 100 | > 100 | > 100 | > 100 | > 100 | > 100 | > 100 | > 100 |  | > 100 | > 100
COc1cc(/C=C/C(=O)C2(C(=O)/C=C/c3cc(OC)c(OC)c(OC)c3)CCCCC2)cc(OC)c1OC | > 100 | > 100 | > 100 | > 100 | 58.4 | > 100 | > 100 | 47.8 | > 100 | > 100 | > 100
Cc1cc(=O)oc2c(CNC(Cc3ccccc3)C(=O)O)c(O)ccc12 (configuration not stated) | > 100 | > 100 | > 100 | > 100 | > 100 | > 100 | > 100 | > 100 | > 100 | > 100 | > 100
O=[N+]([O-])c1cc(-c2nc(-c3ccccc3)c(-c3ccccc3)[nH]2)c(O)c([N+](=O)[O-])c1 | 33.4 | 70.1 | 49.9 | 48.3 | > 100 | > 100 | 75.1 | 41.5 | 77.4 | > 100 | 90.8
O=C1CSC(c2cccc([N+](=O)[O-])c2)N1c1ccc(-n2c(-c3ccccc3)nc3ccccc3c2=O)cc1 (configuration not stated) | > 100 | > 100 | > 100 | > 100 | > 100 | > 100 | > 100 | > 100 | > 100 | > 100 | > 100
CC(=O)OCc1ccc2oc(=O)c(C(=O)Oc3ccccc3)cc2c1 | 30.6 | > 100 | 84.2 | > 100 | > 100 | > 100 | > 100 | > 100 | 99.2 | > 100 | > 100
COC(=O)c1ccccc1C1CN=NC12Cc1cc(C)ccc1C2=O (configuration not stated) | > 100 | > 100 | > 100 | > 100 | > 100 | > 100 | > 100 | > 100 | > 100 | > 100 | > 100
COc1ccc(C(=O)/C=C/c2cc(O)c(O)c(F)c2F)c(OC)c1 | 27.2 | 25.5 | 58.2 | 22.8 | 85.5 | > 100 | 40.8 | 65.3 | 32.2 | > 100 | > 100
